From the supplement of paper PMC10307832

Tests used:
Assay in all cases: relative viability (nuclei count vs DMSO), 5 days (fraction); higher = more cells survive
[1] = compound: COc1cccc2c1C(=O)c1c(O)c3c(c(O)c1C2=O)C[C@@](O)(C(=O)CO)C[C@@H]3O[C@H]1C[C@H](N)[C@H](O)[C@H](C)O1 [Doxorubicin] + CC(=O)c1c(C)c2cnc(Nc3ccc(N4CCNCC4)cn3)nc2n(C2CCCC2)c1=O [Palbociclib] (partner 0.5 µM)
How it was run: (§1)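 After 5 days of treatment, lung cancer cells in 1536-well plates were fixed and stained in a single step (final 0.05% Triton X-100, 1% formaldehyde, 1 ug/ml Hoechst) and their nuclei counted on 4× images. Treatment had been applied by pin tool the day after seeding as one drug alone or as a fixed anchor-drug dose with five library-drug doses (not always all listed) in √10 steps. Relative viability is the nuclei count of treated wells divided by that of vehicle wells, and values are medians of duplicate plates.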

Doxorubicin + AZD7762 = compound: COc1cccc2c1C(=O)c1c(O)c3c(c(O)c1C2=O)C[C@@](O)(C(=O)CO)C[C@@H]3O[C@H]1C[C@H](N)[C@H](O)[C@H](C)O1 [Doxorubicin] + NC(=O)Nc1cc(-c2cccc(F)c2)sc1C(=O)N[C@H]1CCCNC1 [AZD7762] (partner 0.2 µM)
How it was run: as §1

BAY61-3606 + Alpelisib = compound: COC1=C(C=C(C=C1)C2=CC3=NC=CN3C(=N2)NC4=C(C=CC=N4)C(=O)N)OC [BAY61-3606] + Cc1nc(NC(=O)N2CCC[C@H]2C(N)=O)sc1-c1ccnc(C(C)(C)C(F)(F)F)c1 [Alpelisib] (partner 2 µM)
How it was run: as §1

Doxorubicin + Bortezomib = compound: COc1cccc2c1C(=O)c1c(O)c3c(c(O)c1C2=O)C[C@@](O)(C(=O)CO)C[C@@H]3O[C@H]1C[C@H](N)[C@H](O)[C@H](C)O1 [Doxorubicin] + CC(C)C[C@H](NC(=O)[C@H](Cc1ccccc1)NC(=O)c1cnccn1)B(O)O [Bortezomib] (partner 0.002 µM)
How it was run: as §1

| Cell Line | relative viability ([1]; first compound 0.001 µM) | relative viability ([1]; first compound 0.003162 µM) | relative viability ([1]; first compound 0.01 µM) | relative viability ([1]; first compound 0.03162 µM) | relative viability ([1]; first compound 0.1 µM) | relative viability (Doxorubicin + AZD7762; first compound 0.001 µM) | relative viability (Doxorubicin + AZD7762; first compound 0.003162 µM) | relative viability (Doxorubicin + AZD7762; first compound 0.01 µM) | relative viability (Doxorubicin + AZD7762; first compound 0.03162 µM) | relative viability (Doxorubicin + AZD7762; first compound 0.1 µM) | relative viability (BAY61-3606 + Alpelisib; first compound 0.02 µM) | relative viability (BAY61-3606 + Alpelisib; first compound 0.06325 µM) | relative viability (BAY61-3606 + Alpelisib; first compound 0.2 µM) | relative viability (BAY61-3606 + Alpelisib; first compound 0.6325 µM) | relative viability (BAY61-3606 + Alpelisib; first compound 2 µM) | relative viability (Doxorubicin + Bortezomib; first compound 0.001 µM) | relative viability (Doxorubicin + Bortezomib; first compound 0.003162 µM) | relative viability (Doxorubicin + Bortezomib; first compound 0.01 µM) | relative viability (Doxorubicin + Bortezomib; first compound 0.03162 µM) | relative viability (Doxorubicin + Bortezomib; first compound 0.1 µM) |
| --- | --- | --- | --- | --- | --- | --- | --- | --- | --- | --- | --- | --- | --- | --- | --- | --- | --- | --- | --- | --- |
| NCI-H2342 | 0.547 | 0.557 | 0.548 | 0.496 | 0.496 | 0.522 | 0.491 | 0.485 | 0.426 | 0.496 | – | – | – | – | – | – | – | – | – | – |
| HCC-15 | 0.743 | 0.733 | 0.522 | 0.681 | 0.488 | 1.21 | 1.18 | 1.05 | 1.03 | 1.35 | 0.836 | 0.94 | 0.929 | 0.862 | 0.768 | 0.953 | 1.02 | 0.923 | 0.623 | 0.636 |
| A-427 | 0.518 | 0.526 | 0.517 | 0.449 | 0.363 | 0.733 | 0.857 | 0.713 | 0.463 | 0.482 | 1.11 | 1.13 | 1.1 | 1.07 | 1.06 | 1.03 | 1.06 | 0.966 | 0.942 | 0.991 |
| NCI-H2347 | 0.456 | 0.427 | 0.38 | 0.394 | 0.506 | 0.618 | 0.895 | 0.668 | 0.686 | 0.58 | 1.17 | 0.9 | 1.13 | 1.16 | 0.986 | 1.05 | 0.697 | 0.955 | 0.908 | 0.692 |
| NCI-H1755 | 0.473 | 0.481 | 0.434 | 0.474 | 0.468 | 0.523 | 0.489 | 0.393 | 0.485 | 0.491 | 0.946 | 1.01 | 0.908 | 0.903 | 0.77 | 0.99 | 0.947 | 0.985 | 0.981 | 0.969 |
| SK-LU-1 | 0.351 | 0.414 | 0.351 | 0.333 | 0.355 | – | – | – | – | – | 1.37 | 0.951 | 1.04 | 0.844 | 0.421 | – | 1.19 | 1.25 | 0.945 | 0.671 |
| NCI-H1975 | 0.413 | 0.568 | 0.501 | 0.383 | 0.324 | 0.738 | 0.623 | 0.764 | 0.599 | 0.391 | 0.667 | 0.645 | 0.62 | 0.507 | 0.295 | 0.433 | 0.364 | 0.321 | 0.226 | 0.165 |
| NCI-H1703 | – | – | – | – | – | 0.131 | 0.146 | 0.146 | 0.119 | 0.114 | 0.377 | 0.385 | 0.317 | 0.305 | 0.218 | 0.234 | 0.324 | 0.25 | 0.165 | 0.0968 |
| HCC-44 | 0.99 | 0.981 | 1 | 1.03 | 0.933 | 0.938 | 1.02 | 1.01 | 1.04 | 0.993 | 0.866 | 0.909 | 0.806 | 0.997 | 0.833 | 0.947 | 0.988 | 0.891 | 0.949 | 0.828 |
| NCI-H1793 | – | 0.303 | 0.304 | 0.258 | 0.324 | – | 0.432 | 0.574 | 0.298 | 0.358 | 0.817 | 0.782 | 0.64 | 0.882 | 0.839 | – | – | – | – | – |
| NCI-H596 | – | – | – | – | – | 1.13 | 1.12 | 0.987 | 0.986 | 0.959 | 0.428 | 0.482 | 0.108 | 0.479 | 0.407 | – | 1.26 | 1.01 | 0.928 | 0.972 |
| PC-3 [JPC-3] | 0.526 | 0.585 | 0.544 | 0.518 | 0.522 | 0.901 | 0.927 | 0.96 | 0.762 | 0.585 | 1.05 | 1.08 | 1.04 | 1.05 | 0.878 | 0.81 | 0.926 | 0.863 | 0.79 | 0.8 |
| HCC-366 | 0.352 | 0.456 | 0.361 | 0.275 | 0.361 | 0.278 | 0.234 | 0.233 | 0.117 | 0.0686 | 0.449 | 0.343 | 0.369 | 0.388 | 0.212 | – | 1.06 | 1.05 | 0.326 | 0.0968 |
| Calu-6 | – | – | – | – | – | – | – | – | – | – | 1.04 | 1.13 | 0.946 | 0.956 | 0.703 | 0.897 | 1.01 | 0.804 | 0.408 | 0.248 |
| LCLC-103H | 0.468 | 0.508 | 0.5 | 0.457 | 0.41 | 0.781 | 0.815 | 0.75 | 0.767 | 0.826 | 0.94 | 0.965 | 0.981 | 1.03 | 1.04 | 1.07 | 1.12 | 1.08 | 1.14 | 1.12 |
| CAL-12T | 0.41 | 0.527 | 0.486 | 0.279 | 0.174 | 0.727 | 0.673 | 0.529 | 0.668 | 0.438 | 1.21 | 1.28 | 1.11 | 1.4 | 0.607 | 1.01 | 1.06 | 0.853 | 0.567 | 0.307 |
| NCI-H23 | 0.503 | 0.568 | 0.479 | 0.428 | 0.44 | 0.142 | 0.249 | 0.229 | 0.204 | 0.208 | 0.776 | 0.594 | 0.653 | 0.829 | 0.41 | – | 1.06 | 0.93 | 0.514 | 0.567 |
| NCI-H1651 | 0.517 | 0.546 | 0.461 | 0.449 | 0.483 | 0.466 | 0.536 | 0.399 | 0.509 | 0.397 | 0.991 | 0.964 | 0.938 | 0.967 | 0.738 | 0.987 | 0.958 | 0.869 | 0.842 | 0.902 |
